“Also recorded” adds a separate entry of the source.
Assays:
[1] = test system: calf thymus topoisomerase I; assay: Topoisomerase I-mediated DNA cleavage assay (calf thymus topoisomerase I); type: biochemical; conditions: for Topo I-mediated DNA cleavage (REC, Relative Effective Concentration): concentration relative to Hoechst 33342 (arbitrarily 1) producing the same cleavage on plasmid DNA, calf thymus topoisomerase I; for potency as topoisomerase I inhibitor (in words): compared with Hoechst 33342 or with each other
From the text: DNA topoisomerase I was purified from calf thymus gland as reported previously by B. D. Halligan et al., J. Biol. Chem. 260, 2475 (1985). Plasmid YEpG was also purified by the alkali lysis method followed by phenol deproteination and CsCl/ethidium isopycnic centrifugation as described by T. Mariatis et al., Molecular Cloning, A Laboratory Manual, Cold Spring Harbor Labs, N.Y. (1982) at pages 149-185. The end-labeling of the plasmid was accomplished as previously described by L. F. Liu et al., J. Biol. Chem., 258, 15365 (1983). The cleavage assays were performed as previously reported by A. Y. Chen et al., Cancer Res. 53, 1332 (1993). Human topoisomerase was isolated as a recombinant fusion protein using a T7 expression system.
^b Topoisomerase I cleavage values are reported as REC, Relative
Effective Concentration, i.e. concentrations relative to Hoechst 33342,
whose value is arbitrarily assumed as 1, that are able to produce the sam
cleavage on the plasmid DNA in the presence of calf thymus topoisomerase
I. Cleavage is calculated from the intensity of the strongest Hoechst

tumor cells = assay: Cytotoxicity to tumor cells (cell line not specified); type: cell-based; conditions: for cytotoxicity of 3- and 4-pyridyl versus 2-pyridyl analog (in words): relative to the 2-pyridyl derivative, 14
KBV-1 cells [2] = assay: MTT cytotoxicity assay, multidrug-resistant KBV-1 (overexpresses MDR1); type: cell-based, human; conditions: KB 3-1 versus KB V-1
Procedure: (§1) The cytotoxicity was determined using the as MTT-microtiter plate tetrazolinium cytotoxicity assay (MTA) following the procedures of F. Denizot et al., J. Immunol. […] The cytotoxicity assay was performed using 96-well microtiter plates. Cells were grown in suspension at 37° C. in 5% CO2 and maintained by regular passage in RPMI medium supplemented with 10% heat inactivated fetal bovine serum, L-glutamine (2 mM), penicillin (100 U/ml), and streptomycin (0.1 mg/ml). For determination of IC50, cells were exposed continuously with varying concentrations of drug concentrations and MTT assays were performed at the end of the fourth day.
These cells were grown as monolayer cultures at in 5% CO2 and maintained by regular passage in Dulbecco's minimal essential medium supplemented with 10% heat inactivated fetal bovine serum. KBV-1 cells were similarly maintained except they were grown in the presence of 1 μg/ml vinblastine.

CPT-K5 [3] = assay: MTT cytotoxicity assay, camptothecin-resistant CPT-K5; type: cell-based, human
Procedure: as §1

[4] = test system: human MDR1 (P-glycoprotein); assay: MDR1 (P-glycoprotein) substrate, inferred from KB 3-1 versus KB V-1 cytotoxicity; type: cell-based; conditions: inferred from KB 3-1 / KB V-1 IC50 values
Procedure: The drug sensitive human epidermoid carcinoma KB3-1 cell line (S. Aliyama et al., Somatic Cell Mol. Genet., 11, 117 (1985)) and its vinblastine-selected multidrug-resistant variant KBV-1 cells (D. W. Shen et al., Science, 32, 643 (1986)) were provided by Dr. Michael Gottesmann (National Cancer Institute, Bethesda, Md.). These cells were grown as monolayer cultures at in 5% CO2 and maintained by regular passage in Dulbecco's minimal essential medium supplemented with 10% heat inactivated fetal bovine serum. KBV-1 cells were similarly maintained except they were grown in the presence of 1 μg/ml vinblastine.

[5] = cited from earlier work
minor groove of DNA = conditions: literature; cited from earlier work
KBV-1 cells [6] = conditions: as reported by A. Y. Chen et al., Adv. Pharmacol. (1994); cited from earlier work
topoisomerase I = conditions: Hoechst 33342; cited from earlier work
CPT-K5 [7] = conditions: as reported by A. Y. Chen et al., Cancer Res., 53, 1332 (1993); cited from earlier work

c1ccc2[nH]c(-c3ccc4[nH]c(-c5ccc6[nH]cnc6c5)nc4c3)nc2c1 [Compound 10, 2-[2'-(Benzimidazol-5"-yl)benzimidazol-5'-yl]benzimidazole]
Topo I-mediated DNA cleavage (REC, Relative Effective Concentration) [1]: 1.1

N#Cc1ccc2[nH]c(-c3ccc4[nH]c(-c5ccc6[nH]cnc6c5)nc4c3)nc2c1 [Compound 11, 5-Cyano-2-[2'-(benzimidazol-5"-yl)benzimidazol-5'-yl]benzimidazole]
Topo I-mediated DNA cleavage (REC, Relative Effective Concentration) [1]: 1

CCCc1ccc2[nH]c(-c3ccc4[nH]c(-c5ccc6[nH]cnc6c5)nc4c3)nc2c1 [Compound 12, 5-Propyl-2-[2'-(benzimidazol-5"-yl)benzimidazol-5'-yl]benzimidazole]
cytotoxicity to tumor cells (in words, general) (tumor cells): weak cytotoxicity
potency as topoisomerase I inhibitor (in words) [1]: much less active than either 10, 11, or 13
Topo I-mediated DNA cleavage (REC, Relative Effective Concentration) [1]: 100

c1ccc(-c2ccc3[nH]c(-c4ccc5[nH]c(-c6ccc7[nH]cnc7c6)nc5c4)nc3c2)cc1 [Compound 13, 5-Phenyl-2-[2'(benzimidazol-5"-yl)benzimidazol-5'-yl]benzimidazole]
IC50 difference between KB 3-1 and KB V-1 cells (in words) (KBV-1 cells [2]): little difference
effect against camptothecin-resistant CPT-K5 cells (in words) (CPT-K5 [3]): effective against camptothecin-resistant CPT-K5 cells
substrate for human MDR1 [4]: appears not to be a substrate for human MDR1
potency as topoisomerase I inhibitor (in words) [1]: approximately one-half as potent as Hoechst 33342
Topo I-mediated DNA cleavage (REC, Relative Effective Concentration) [1]: 2

c1ccc(-c2ccc3[nH]c(-c4ccc5[nH]c(-c6ccc7[nH]cnc7c6)nc5c4)nc3c2)nc1 [Compound 14, 5-(2-Pyridyl)-2-[2'-(benzimidazol-5"-yl)benzimidazol-5'-yl]benzimidazole]
antifungal activity (Antifungal activity): exhibits antifungal activity
Topo I-mediated DNA cleavage (REC, Relative Effective Concentration) [1]: 3.3

c1cncc(-c2ccc3[nH]c(-c4ccc5[nH]c(-c6ccc7[nH]cnc7c6)nc5c4)nc3c2)c1 [Compound 15, 5-(3-Pyridyl)-2-[2'-(benzimidazol-5"-yl)benzimidazol-5'-yl]benzimidazole]
cytotoxicity of 3- and 4-pyridyl versus 2-pyridyl analog (in words) (tumor cells): somewhat more active than the 2-pyridyl derivative, 14
potency as topoisomerase I inhibitor (in words) [1]: somewhat more active than the 2-pyridyl derivative, 14
Topo I-mediated DNA cleavage (REC, Relative Effective Concentration) [1]: 2

c1cc(-c2ccc3[nH]c(-c4ccc5[nH]c(-c6ccc7[nH]cnc7c6)nc5c4)nc3c2)ccn1 [Compound 16, 5-(4-Pyridyl)-2-[2'-(benzimidazol-5"-yl)benzimidazol-5'-yl]benzimidazole]
cytotoxicity of 3- and 4-pyridyl versus 2-pyridyl analog (in words) (tumor cells): somewhat more active than the 2-pyridyl derivative, 14
potency as topoisomerase I inhibitor (in words) [1]: somewhat more active than the 2-pyridyl derivative, 14
Topo I-mediated DNA cleavage (REC, Relative Effective Concentration) [1]: 2

N#Cc1ccc2[nH]c(-c3ccc4[nH]cnc4c3)nc2c1 [Compound 19, 5-Cyano-2-(benzimidazol-5'-yl)benzimidazole]
Topo I-mediated DNA cleavage (REC, Relative Effective Concentration) [1]: 1000

CCOc1ccc(-c2nc3cc(-c4nc5cc(N6CCN(C)CC6)ccc5[nH]4)ccc3[nH]2)cc1 [Hoechst 33342, 2'-(4-ethoxyphenyl)-5-(4-methyl-1-piperazinyl)-2,5'-bi-1H-benzimidazole]
effect against camptothecin-resistant CPT-K5 cells (in words) (CPT-K5 [3]): effective against camptothecin-resistant CPT-K5 cells
protonation at physiological pH [5]: extensively protonated at physiological pH
binding to DNA (minor groove of DNA): binds to the minor groove of DNA
IC50 difference, KB 3-1 as compared to KB V-1 cells (literature) (KBV-1 cells [6]): approximately two-orders of magnitude
topoisomerase I inhibition (literature) (topoisomerase I): inhibitor of topoisomerase I; also recorded: traps the reversible cleavable complex derived from DNA and topoisomerase I

CC[C@@]1(O)C(=O)OCc2c1cc1n(c2=O)Cc2cc3ccccc3nc2-1 [camptothecin]
relative resistance of camptothecin (CPT-K5 [7]): 2,500 fold
